The source of these data is patent US7598258B2, “Quinoline derivatives and quinazoline derivatives inhibiting autophosphorylation of macrophage colony stimulating factor receptor” (Kirin Beer Kabushiki Kaisha, priority 2002, dated 2009).

The target of this assay is T1, Human KDR (Homo sapiens, UniProt P35968).
T1 construct: expressed in transfected cells; host or cells: NIH3T3 cells (mouse fibroblasts)
Put plainly: Inhibition of KDR phosphorylation in human KDR-transfected NIH3T3 cells (ELISA). It is filed as cell-based. To be noted: for Selection ratio (KDR phosphorylation IC50 / c-fms phosphorylation IC50): class 0-3; for pIC50: human KDR-transfected NIH3T3 cells, VEGF 100 ng/ml, ELISA, read-out: KDR phosphorylation 50% inhibitory concentration (IC50). The protocol: Human KDR-transfected NIH3T3 cells (Sawano A et al., Cell Growth & Differentiation, 7, 213-221 (1996)) were cultured in a DMEM medium containing 10% fetal calf serum (purchased from GIBCO BRL) within a 5% carbon dioxide incubator until 50 to 70% confluent. The harvested cells were seeded into wells, containing the same medium, in a collagen type 1 coat 96-well flat-bottom plate in an amount of 1.5×10^4 per well, and cultured at 37° C. overnight. The medium was replaced with a 0.1% fetal calf serum-containing DMEM medium. The test compound dissolved in dimethyl sulfoxide was added to each well, and the cultivation was continued at 37° C. for additional one hr. A human recombinant vascular endothelial growth factor (hereinafter abbreviated to “VEGF”) was added to a final concentration of 100 ng/ml, followed by stimulation of cells at 37° C. for 2 min. The medium was removed, and the cells were washed with phosphate buffered saline (pH 7.4). A solubilization buffer (50 μl) (20 mM HEPES (pH 7.4), 150 mM NaCl, 0.2% Triton X-100, 10% glycerol, 5 mM sodium orthovanadylate, 5 mM disodium ethylenediaminetetraacetate, and 2 mM Na4P2O7) was then added thereto. The mixture was shaken at 4° C. for 2 hr to prepare a cell extract.
Separately, phosphate buffered saline (50 μl, pH 7.4) containing 5 μg/ml of anti-phospho-tyrosine antibody (PY20; purchased from Transduction Laboratories) was added to a microplate for ELISA (Maxisorp; purchased from NUNC), followed by standing at 4° C. overnight to be immobilized on the wells. After washing of the plate, 300 μl of a blocking solution was added, followed by standing at room temperature for 2 hr to perform blocking. After washing, the whole cell extract was transferred and was allowed to stand at 4° C. overnight. After washing, an anti-KDR antibody (purchased from Santa Cruz Biotechnology) was allowed to react at room temperature for one hr. Further, after washing, a peroxidase-labeled anti-rabbit Ig antibody (purchased from Amersham) was allowed to react at room temperature for one hr. After washing, a chromophoric substrate for peroxidase (purchased from Sumitomo Bakelite Co., Ltd.) was added thereto to initiate a reaction. After a suitable level of color development, a reaction termination solution was added to stop the reaction, and the absorbance at 450 nm was measured with a microplate reader. The KDR phosphorylation activity for each well was determined by presuming the absorbance without the addition of the test compound and with the addition of VEGF to be 100% KDR phosphorylation activity and the absorbance without the addition of the test compound and VEGF to be 0% KDR phosphorylation activity. The concentration of the test compound was varied on several levels, the KDR phosphorylation inhibitory rate was determined for each case, and the concentration of the test compound necessary for inhibiting 50% of KDR phosphorylation (IC50) was calculated.
For orientation: ELISA stands for enzyme-linked immunosorbent assay.

Molecules are shown by their SMILES. pIC50: −log10 of the molar value.

T1 sequence (P35968 20-1356): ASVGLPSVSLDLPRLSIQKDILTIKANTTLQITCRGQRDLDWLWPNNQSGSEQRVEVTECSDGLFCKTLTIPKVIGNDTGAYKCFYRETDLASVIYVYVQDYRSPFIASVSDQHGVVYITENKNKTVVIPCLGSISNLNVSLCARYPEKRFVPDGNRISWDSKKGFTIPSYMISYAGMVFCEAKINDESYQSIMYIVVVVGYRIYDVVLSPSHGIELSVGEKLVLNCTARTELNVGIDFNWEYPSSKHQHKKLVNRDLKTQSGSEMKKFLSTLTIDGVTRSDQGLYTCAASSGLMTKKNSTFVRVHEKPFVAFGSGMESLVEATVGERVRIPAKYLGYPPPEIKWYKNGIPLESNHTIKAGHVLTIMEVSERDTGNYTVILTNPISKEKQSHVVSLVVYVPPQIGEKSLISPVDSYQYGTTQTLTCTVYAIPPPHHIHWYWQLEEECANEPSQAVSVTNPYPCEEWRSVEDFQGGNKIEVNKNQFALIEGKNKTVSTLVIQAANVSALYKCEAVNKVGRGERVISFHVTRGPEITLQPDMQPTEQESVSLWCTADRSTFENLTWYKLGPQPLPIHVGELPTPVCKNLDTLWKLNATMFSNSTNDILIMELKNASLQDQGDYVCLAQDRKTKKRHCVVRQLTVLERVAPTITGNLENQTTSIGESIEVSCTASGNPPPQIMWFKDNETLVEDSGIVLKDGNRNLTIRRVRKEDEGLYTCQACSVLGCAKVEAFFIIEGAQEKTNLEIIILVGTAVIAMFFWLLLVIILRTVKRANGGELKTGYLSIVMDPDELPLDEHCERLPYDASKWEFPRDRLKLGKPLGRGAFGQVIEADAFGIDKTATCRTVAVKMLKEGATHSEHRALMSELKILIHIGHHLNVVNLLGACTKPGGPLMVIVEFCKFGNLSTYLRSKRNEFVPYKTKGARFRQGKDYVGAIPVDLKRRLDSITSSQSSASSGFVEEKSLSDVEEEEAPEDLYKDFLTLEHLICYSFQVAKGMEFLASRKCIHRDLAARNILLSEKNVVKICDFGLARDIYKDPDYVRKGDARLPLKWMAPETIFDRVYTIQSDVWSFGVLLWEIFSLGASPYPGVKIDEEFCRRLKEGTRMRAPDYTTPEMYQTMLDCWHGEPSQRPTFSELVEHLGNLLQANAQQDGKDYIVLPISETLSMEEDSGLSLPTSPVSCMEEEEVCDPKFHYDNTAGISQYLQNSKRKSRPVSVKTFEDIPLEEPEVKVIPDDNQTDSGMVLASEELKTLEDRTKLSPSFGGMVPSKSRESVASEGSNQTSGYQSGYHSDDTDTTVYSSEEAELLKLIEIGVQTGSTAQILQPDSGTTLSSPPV

On to `COc1cc2nccc(Oc3ccc(NC(=O)N[C@@H](C)c4ccc(Br)cc4)cc3)c2cc1OC` [Example 34, N-[(1S)-1-(4-Bromophenyl)ethyl]-N′-{4-[(6,7-dimethoxy-4-quinolyl)oxy]phenyl}urea], for which the “Selection ratio (KDR phosphorylation IC50 / c-fms phosphorylation IC50)” value is recorded as 2 (when the value was 10 or more) and the pIC50 is 6.53.

`COc1cc2nccc(Oc3ccc(NC(=O)N[C@@H](C)c4ccc(F)cc4)c(C(F)(F)F)c3)c2cc1OC` [Example 20, N-[4-[(6,7-Dimethoxy-4-quinolyl)oxy]-2-(trifluoromethyl)phenyl]-N′-[(1S)-1-(4-fluorophenyl)ethyl]urea]: the “Selection ratio (KDR phosphorylation IC50 / c-fms phosphorylation IC50)” value is reported as 2 (when the value was 10 or more) and the pIC50 is 6.84.

With `COc1cc2c(Oc3ccc(NC(=O)NC(C)c4ccc(F)cc4)cc3F)ccnc2cc1OCCCN1CCOCC1` (stereo not drawn) [Example 64, N-(3-Fluoro-4-{[6-methoxy-7-(3-morpholinopropoxy)-4-quinolyl]oxy}phenyl)-N′-[1-(4-fluorophenyl)ethyl]urea], the “Selection ratio (KDR phosphorylation IC50 / c-fms phosphorylation IC50)” value was 0 (KDR phosphorylation 50% inhibitory concentration [μM]/c-fms phosphorylation 50% inhibitory concentration [μM] was less than 5) and the pIC50 was 8.01.

As for `COc1cc2nccc(Oc3ccc(NC(=O)N[C@H](C)c4cccc(Br)c4)c(C)c3C)c2cc1OC` [Example 62, N-[(1R)-1-(3-Bromophenyl)ethyl]-N′-{4-[(6,7-dimethoxy-4-quinolyl)oxy]-2,3-dimethylphenyl}urea], the “Selection ratio (KDR phosphorylation IC50 / c-fms phosphorylation IC50)” value was 0 (KDR phosphorylation 50% inhibitory concentration [μM]/c-fms phosphorylation 50% inhibitory concentration [μM] was less than 5) and the pIC50 was 8.57.

In the case of `COc1cc2nccc(Oc3cc(C)c(NC(=O)NC(C)c4nc(C)cs4)cc3C)c2cc1OC` (stereo not drawn) [Example 93, N-{4-[(6,7-Dimethoxy-4-quinolyl)oxy]-2,5-dimethylphenyl}-N′-[1-(4-methyl-1,3-thiazol-2-yl)ethyl]urea], the “Selection ratio (KDR phosphorylation IC50 / c-fms phosphorylation IC50)” value is listed as 1 (when the value was 5 or more) and the pIC50 was 6.57.

With `COc1cc2nccc(Oc3ccc(NC(=O)N[C@@H](C)c4ccc(F)cc4)cc3Cl)c2cc1OC` [Example 11, N-{3-Chloro-4-[(6,7-dimethoxy-4-quinolyl)oxy]phenyl}-N′-[(1S)-1-(4-fluorophenyl)ethyl]urea], the “Selection ratio (KDR phosphorylation IC50 / c-fms phosphorylation IC50)” value is 2 (when the value was 10 or more) and the pIC50 was 6.91.

Consider `COc1cc2nccc(Oc3ccc(NC(=O)N[C@H](C)c4nccs4)cc3OC)c2cc1OC` [Example 82, N-{4-[(6,7-Dimethoxy-4-quinolyl)oxy]-3-methoxyphenyl}-N′-[(1R)-1-(1,3-thiazol-2-yl)ethyl]urea], for which the “Selection ratio (KDR phosphorylation IC50 / c-fms phosphorylation IC50)” value is recorded as 3 (when the value was 50 or more) and the pIC50 was 6.19.

For `COc1cc2c(Oc3ccc(NC(=O)NC(C)c4ccc(F)cc4F)cc3F)ccnc2cc1OCCCN1CCOCC1` (stereo not drawn) [Example 66, N-[1-(2,4-Difluorophenyl)ethyl]-N′-(3-fluoro-4-{[6-methoxy-7-(3-morpholinopropoxy)-4-quinolyl]oxy}phenyl)urea], the “Selection ratio (KDR phosphorylation IC50 / c-fms phosphorylation IC50)” value was 0 (KDR phosphorylation 50% inhibitory concentration [μM]/c-fms phosphorylation 50% inhibitory concentration [μM] was less than 5) and the pIC50 was 7.78.

Regarding `COc1cc(Oc2ccnc3cc(OC)c(OC)cc23)ccc1NC(=O)NC(C)c1nc(C)c(C)s1` (stereo not drawn) [Example 99, N-{4-[(6,7-Dimethoxy-4-quinolyl)oxy]-2-methoxyphenyl}-N′-[1-(4,5-dimethyl-1,3-thiazol-2-yl)ethyl]urea], the “Selection ratio (KDR phosphorylation IC50 / c-fms phosphorylation IC50)” value is reported as 2 (when the value was 10 or more) and the pIC50 is 6.53.
